The target of series [1] is T1, recombinant human NK1 receptors (Homo sapiens, UniProt P25103).
T1 construct: expressed in transfected cells; host or cells: Chinese Hamster Ovary (CHO) cells, membrane preparation
In words: NK1-receptor binding affinity: displacement of [3H]-substance P from CHO cell membranes. The note with it: average of at least two determinations, [3H]-substance P displacement, read-out: pki (negative logarithm of the inhibition constant Ki of displacer ligands) (converted). As to the method: Thus ligand binding was performed in 0.4 ml of 50 mM HEPES, pH 7.4, containing 3 mM MnCl2, 0.02% BSA, 0.5 nM [^3H]Substance P (30+56 Ci/mmol, Amersham), a final membrane concentration of 25 μg of protein/ml, and the test compounds. The incubation proceeded at room temperature for 40 min.
The affinity of the compound of the invention for NK1 receptor was determined using the NK1-receptor binding affinity method measuring in vitro by the compounds' ability to displace [3H]—substance P (SP) from recombinant human NK1 receptors expressed in Chinese Hamster Ovary (CHO) cell membranes. The affinity values are expressed as negative logarithm of the inhibition constant (Ki) of displacer ligands (pKi).
On the technique in general: Loss of bound radioactivity is the signal in a displacement assay; it reports binding, not function.

A further series has as its target T2, nk1 receptor (Meriones unguiculatus, UniProt Q5DUB1).
T2 construct: from tissue; host or cells: living gerbil, central NK1 receptors (agonist infused icv)
In words: gerbil foot tapping model (hind foot tapping induced by icv NK1 agonist). The conditions noted are these: oral administration, one hour before icv NK1 agonist; dose inhibiting tapping by 50%. Format: in vivo. As to the method:
The action of the compounds of the invention at the NK1 receptor may be determined by using conventional tests. Thus the ability to bind at the NK1 receptor was determined using the gerbil foot tapping model as described by Rupniak & Williams, Eur. J. of Pharmacol., 1994.
The ability of the compounds of the invention at the nk1 receptor may be determined using the gerbil foot tapping model as described by Rupniak & Williams, Eur. Jour. of Pharmacol., 1994.
The compound was administered orally and one hour later an NK1 agonist (e.g. delta-Aminovaleryl^6[Pro^9,Me-Leu^10]-substance P (7-11)) (3 pmol in 5 μL, icv) was infused directly in the cerebral ventricules of the animals. The duration of hind foot tapping induced by the NK1 agonist (e.g. delta-Aminovaleryl^6[Pro^9,Me-Leu^10]-substance P (7-11)) was recorded continuously for 3 min using a stopclock. […] Alternatively the compounds may be administered subcutaneously or intraperitoneally.

The values below come from patent publication USRE39921E1, “Chemical compounds” (SmithKline Beecham Corporation, priority 1999, dated 2007).

Structures can show the parent of a compound that is named as a salt.

T2 sequence (Q5DUB1 whole entry, the tested form may be a part): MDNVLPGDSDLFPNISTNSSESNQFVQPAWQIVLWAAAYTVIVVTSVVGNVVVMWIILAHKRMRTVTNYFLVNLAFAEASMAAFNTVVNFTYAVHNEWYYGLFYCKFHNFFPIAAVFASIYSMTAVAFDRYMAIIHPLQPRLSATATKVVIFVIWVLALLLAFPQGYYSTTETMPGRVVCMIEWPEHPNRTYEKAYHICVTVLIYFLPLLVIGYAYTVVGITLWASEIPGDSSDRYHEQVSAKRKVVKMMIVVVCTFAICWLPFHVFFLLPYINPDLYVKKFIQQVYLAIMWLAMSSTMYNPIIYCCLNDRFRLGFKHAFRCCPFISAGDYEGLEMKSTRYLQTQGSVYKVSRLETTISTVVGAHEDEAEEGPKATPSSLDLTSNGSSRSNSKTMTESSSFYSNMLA
T1 sequence (P25103 whole entry): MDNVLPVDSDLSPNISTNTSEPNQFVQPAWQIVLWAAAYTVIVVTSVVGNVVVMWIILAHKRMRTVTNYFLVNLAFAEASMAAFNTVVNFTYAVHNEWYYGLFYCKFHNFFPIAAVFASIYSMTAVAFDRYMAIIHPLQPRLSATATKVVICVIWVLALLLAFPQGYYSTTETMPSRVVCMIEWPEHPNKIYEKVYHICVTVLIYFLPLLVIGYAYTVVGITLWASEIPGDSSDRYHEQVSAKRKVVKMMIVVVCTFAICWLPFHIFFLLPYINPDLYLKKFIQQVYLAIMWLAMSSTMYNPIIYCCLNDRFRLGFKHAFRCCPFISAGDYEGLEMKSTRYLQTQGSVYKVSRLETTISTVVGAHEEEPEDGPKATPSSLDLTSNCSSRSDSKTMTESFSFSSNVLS

One may read the melting point as the temperature, or range, at which the solid turns liquid. Take `CC(C)c1cccc(C2CNCCN2C(=O)N(C)Cc2cc(C(F)(F)F)cc(C(F)(F)F)c2)c1.Cl` (stereo not drawn): the melting point lay within 77 to 80 °C.

The term Ki denotes the dissociation constant of the complex between target and ligand, obtained from inhibition or displacement. `Cc1cc(F)ccc1C1CNCCN1C(=O)N1CC=CCC1c1cc(C(F)(F)F)cc(C(F)(F)F)c1` (single isomer, unassigned) [Example 28, hydrochloride]: the Ki in series [1] was 0.49 nM.

For the compound `Cc1cc(F)ccc1[C@H]1CNCCN1C(=O)N1CCCCC1c1cc(C(F)(F)F)cc(C(F)(F)F)c1` (single isomer, unassigned) [Example 29, hydrochloride], in series [1], the Ki is 1.35 nM.

Regarding `C=CCC(c1cc(C(F)(F)F)cc(C(F)(F)F)c1)N(C)C(=O)N1CCNCC1c1ccc(F)cc1C` (single isomer, unassigned) [Example 30, 2-(4-Fluoro-2-methyl-phenyl)-piperazine-1-carboxylic acid [1-(3,5-bis-trifluoromethyl-phenyl)-but-3-enyl]-methyl-amide hydrochloride], the Ki in series [1] was 1.66 nM.

Consider `Cc1cc(F)ccc1C1CNCCN1C(=O)N(C)C(c1cc(C(F)(F)F)cc(C(F)(F)F)c1)C(C)C` (single isomer, unassigned) [Example 32, 2-(4-Fluoro-2-methyl-phenyl)-piperazine-1-carboxylic acid [1-(3,5-bis-trifluoromethyl-phenyl)-2-methyl-propyl]-methyl-amide hydrochloride], for which the Ki in series [1] is 1.02 nM.

`Cc1cc(F)ccc1C1CNCCN1C(=O)N(C)C(c1cc(C(F)(F)F)cc(C(F)(F)F)c1)C1CC1` (single isomer, unassigned) [Example 34, 2(4-Fluoro-2-methyl-phenyl)-piperazine-1-carboxylic acid [(3,5-bis-trifluoromethyl-phenyl)-cyclopropyl-methyl]-methyl-amide hydrochloride]: in series [1], the Ki is 0.794 nM.

`Cc1cc(F)ccc1C1CNCCN1C(=O)N(C)Cc1cc(C(F)(F)F)cc(C(F)(F)F)c1.Cl` (stereo not drawn) [Example 1, 2-(4-Fluoro-2-methyl-phenyl)-piperazine-1carboxylic acid (3,5-bistrifluoromethyl-benzyl)-methyl-amide hydrochloride] returned a melting point of more than 220 °C. Further, the Ki in series [1] was 1.07 nM.

`Cc1cc(C2CNCCN2C(=O)N(C)Cc2cc(C(F)(F)F)cc(C(F)(F)F)c2)ccc1F.Cl` (stereo not drawn) [Example 4, 2(4-Fluoro-3-methyl-phenyl)-piperazine-1-carboxylic acid (3,5-bis-trifluoromethyl-benzyl)-methyl-amide hydrochloride]: the melting point lay within 70 to 72 °C. Besides, in series [1], the Ki is 4.37 nM.

The compound `CN(Cc1cc(C(F)(F)F)cc(C(F)(F)F)c1)C(=O)N1CCNCC1c1ccc(F)cc1F.Cl` (stereo not drawn) [Example 5, 2-(2,4-Difluoro-phenyl)-piperazine-1-carboxylic acid (3,5-bis-trifluoromethyl-benzyl)-methyl-amide hydrochloride] showed a melting point of 220 to 230 °C. Moreover, the Ki in series [1] is 2.14 nM.

Turning to `Cc1cc(F)ccc1[C@H]1CNCCN1C(=O)N(C)Cc1cc(C(F)(F)F)cc(C(F)(F)F)c1` [Example 8, (−)-2-(S)-(4-Fluoro-2-methyl-phenyl)-piperazine-1-carboxylic acid (3,5-bis-trifluoromethyl-benzyl)-methyl-amide hydrochloride], in series [1], the Ki was 0.427 nM.

Turning to `CN(Cc1cc(C(F)(F)F)cc(C(F)(F)F)c1)C(=O)N1CCNCC1c1ccc(F)cc1` (stereo not drawn) [Example 12, hydrochloride], the Ki in series [1] was 2 nM.

The compound `CN(Cc1ccc(C(F)(F)F)c(C(F)(F)F)c1)C(=O)N1CCNCC1c1ccc(F)cc1.Cl` (stereo not drawn) [Example 12] returned a melting point of more than 200 °C.

For the compound `CN(Cc1cc(C(F)(F)F)cc(C(F)(F)F)c1)C(=O)N1CCNCC1c1ccc(Cl)cc1Cl` (stereo not drawn) [Example 14, 2-(2,4-Dichloro-phenyl)-piperazine-1-carboxylic acid (3,5-bistrifluoro methyl-benzyl)-methyl-amide hydrochloride], in series [1], the Ki is 2 nM.

As for `CC(=O)O.Cc1cc(F)ccc1[C@H]1CNCCN1C(=O)N(C)[C@@H](C)c1cc(C(F)(F)F)cc(C(F)(F)F)c1` [Example 19, 2-(S)-(4-Fluoro-2-methyl-phenyl)-piperazine-1-carboxylic acid [1-(S)-(3,5-bis-trifluoromethyl-phenyl)-ethyl]-methyl-amide acetate], the ED50(mg/kg po) on nk1 receptor came to 0.04 mg/kg.

For `Cc1cc(F)ccc1[C@H]1CN(C(=O)CN)CCN1C(=O)N(C)Cc1cc(C(F)(F)F)cc(C(F)(F)F)c1.Cl` [Example 20, 4-(2-Amino-acetyl)-2-(S)-(4-fluoro-2-methyl-phenyl)-piperazine-1-carboxylic acid (3,5-bis-trifluoromethyl-benzyl)-methyl-amide hydrochloride], the Ki in series [1] is 0.347 nM. The compound also gave an ED50(mg/kg po) on nk1 receptor of 0.065 mg/kg.

On to `Cc1cc(F)ccc1[C@H]1CNCCN1C(=O)N(C)C(C)(C)c1cc(C(F)(F)F)cc(C(F)(F)F)c1.Cl` [Example 21, 2-(S)-(4-Fluoro-2-methyl-phenyl)-piperazine-1-carboxylic acid [1-(3,5-bis-trifluoromethyl-phenyl)-1-methyl-ethyl]-methyl-amide hydrochloride], for which the Ki in series [1] was 1.12 nM. This compound had an ED50(mg/kg po) on nk1 receptor of 0.4 mg/kg.

As to `Cc1cc(F)ccc1[C@H]1CN(CCN)CCN1C(=O)N(C)Cc1cc(C(F)(F)F)cc(C(F)(F)F)c1` [Example 22, 4(2-Aminoethyl)-2-(S)-(4-fluoro-2-methyl-phenyl)-piperazine-1-carboxylic acid (3,5-bis-trifluoromethyl-benzyl)-methyl-amide dihydrochloride Salt], the Ki in series [1] is 0.407 nM.

Regarding `Cc1cc(F)ccc1C1C(C)NCCN1C(=O)N(C)Cc1cc(C(F)(F)F)cc(C(F)(F)F)c1` (stereo not drawn) [Example 23, 2-(4-Fluoro-2-methyl-phenyl)-3-methyl-piperazine-1-carboxylic acid (3,5-bis-trifluoromethyl-benzyl)-methyl-amide hydrochloride salt], the Ki in series [1] was 0.479 nM.

Compound `Cc1cc(F)ccc1C1CNCC(C)N1C(=O)N(C)Cc1cc(C(F)(F)F)cc(C(F)(F)F)c1.Cl` (stereo not drawn) [Example 24, 2-(2-Methyl-4-fluoro-phenyl)-6-methyl-piperazine-1-carboxylic acid (3,5-bis-trifluoromethyl-benzyl)-methyl-amide hydrochloride salt] came in with a melting point of more than 200 °C. Besides, the Ki in series [1] is 0.661 nM.

As to `Cc1cc(F)ccc1[C@H]1CNCCN1C(=O)N(C)C1(c2cc(C(F)(F)F)cc(C(F)(F)F)c2)CC1` [Example 25, 2-(S)-(4-Fluoro-2-methyl-phenyl)-piperazine-1-carboxylic acid [1-3,5-bis-trifluoromethyl-phenyl)-cyclopropyl]-methyl-amide hydrochloride], in series [1], the Ki was 0.479 nM.

`CS(=O)(=O)O.Cc1cc(F)ccc1[C@H]1CNCCN1C(=O)N(C)[C@H](C)c1cc(C(F)(F)F)cc(C(F)(F)F)c1` [Example 36, 2(S)-(4-Fluoro-2-methyl-phenyl)-piperazine-1-carboxylic acid [1-(R)-(3,5-bis-trifluoromethyl-phenyl)-ethyl]-methyl-amide methansulphonate]: the ED50(mg/kg po) on nk1 receptor stood at 0.05 mg/kg.
